What was measured:
Format in all cases: in vivo
eicosanoids [1] = assay: Eicosanoid profiling by LC-MS/MS, left hippocampus of wild-type and 5×FAD mice; conditions: 5 mk/kg twice daily for 4 weeks
Experimental: (§1) Eicosanoids were measured by methods of liquid chromatography with tandem mass spectrometry with the use of spiked in deuterated internal standards. Eicosanoids measured included: the 6-keto-PGF1 alpha (6-keto-PGF1a, a hydrolysis product of and proxy for prostacyclin), thromboxane B2 (TXB2, a metabolite/product of and proxy for thromboxane A2), PGD2, PGE2, 15-keto-PGE2 (produced by 15-PGDH degradation of PGE2), tetranor PGE1 (TN-E, a metabolic product produced by beta-oxidation of PGE2), PGJ2, PGF2 alpha (PGF2a), LTB4, 15-HETE, 12-HETE, 8-HETE, 5-HETE, 17-HDHA, 12,13-DiHOME, 14,15-DHET, 11,12-DHET.
(§2) FIG. 2 illustrates graphs showing comparison of eicosanoid values in brain of 6 month old male mice that are either wild-type or that are the 5×FAD strain of mice that model Alzheimer's disease. Beginning at 5 months of age both genotypes of mice were injected twice daily with either 5 mk/kg (+)-SW033291 or with matched vehicle control as described in Zhang et al. Science. 2015; 348(6240):aaa2340. PMCID: PMC4481126. Treatment continued twice daily for 4 weeks. Mice were sacrificed at 3 hours following their final injection. After sacrifice the left hippocampus was dissected, flash frozen, and powdered, and eicosanoids were extracted in aqueous buffer for analysis. Protein concentration of the extracts were assayed, and eicosanoid values were recorded as ng eicosanoid per mg protein.

eicosanoids [2] = assay: Eicosanoid profiling by LC-MS/MS, brain hemispheres of mice after sham or traumatic brain injury (TBI); conditions: for eicosanoid values in left hemisphere / eicosanoid values in right hemisphere (trends): 5 mk/kg twice daily for 21 days
Experimental: as §1
FIGS. 4-6 illustrate graphs showing comparisons of eicosanoid values in brain of wild-type male mice who at 8 weeks of age were subjected to sham or actual traumatic brain injury (TBI) delivered by blast wave to the left skull. 24 hours following sham or actual TBI treatment commenced by injection twice daily with either 5 mk/kg (+)-SW033291 or with matched vehicle control as described in Zhang et al. Science. 2015; 348(6240):aaa2340. PMCID: PMC4481126. Treatment continued for 21 days until mice reached 11 weeks of age. Three hours following the last injection, mice were sacrificed. After sacrifice the right or left hemisphere of the brain was dissected, flash frozen, and powdered, and eicosanoids were extracted in organic solvent for analysis. Values were normalized to the wet weight of the companion contralateral brain hemispheres and are recorded as ng eicosanoid per gm wet weight of tissue.

[3] = test system: C57/B6 mice exposed to TBI; assay: Morris water maze after TBI; conditions: for memory / cognitive impairment after TBI (MWM probe): 5 mg/kg twice daily started 24 hours after injury, tested 2 weeks after injury
Experimental: (A) Experimental Timeline: 8 week old C57/B6 mice were exposed to sham-injury or TBI. Twice daily treatment with 5 mg/kg (+)-SW033291 or vehicle was started 24 hours after injury and continued throughout the duration of the experiment. Animals were tested for cognitive performance in the Morris water maze (MWM) 2 weeks after injury. (B) Animals were trained to find the hidden platform in the MWM for 4 consecutive days (4 trials/day), with performance measured as latency to find the hidden platform. […] (C, D) To probe for spatial memory of the learned location of the hidden platform, one day after the final learning day the animals were tested in the same MWM except the platform was removed. Memory was measured as latency to first cross the area where the platform was located and the number of times the animal crossed that area. […] Individual mouse data points are shown on the graph. Data was analyzed using two-way repeated measures ANOVA; * p<0.05, ** p<0.01, *** p<0.001. All data is mean±SEM

[4] = test system: C57/B6 mice exposed to TBI; assay: Silver staining for axon degeneration after TBI; conditions: 3 weeks after TBI, 5 mg/kg twice daily started 24 hours after injury
Experimental: 8 week old C57/B6 mice were exposed to sham-injury or TBI. Twice daily treatment with 5 mg/kg (+)-SW033291, 5 mg/kg (−)-SW033291, or vehicle was started 24 hours after injury and continued throughout the duration of the experiment. Animals were sacrificed by transcardial perfusion 3 weeks after TBI or sham-injury, and fixed brains were processed for silver staining. […] Individual mouse data points are shown on the graph. Data was analyzed using two-way repeated measures ANOVA; * p<0.05, ** p<0.01. All data is mean±SEM.

[5] = test system: 5×FAD and wild type (WT) mice; assay: BrdU staining, survival of newborn hippocampal neurons; conditions: 5 mg/kg/day twice daily from 2 to 6 months; for survival of newborn hippocampal neurons (BrdU): 28 days after BrdU
Experimental: Two month old 5×FAD and wild type (WT) littermates were treated with 5 mg/kg/day twice daily (+)-SW033291 (or vehicle) every day from 2 to 6 months. At 5 months of age, mice were injected with a single dose of 150 mg/kg bromodeoxyuridine (BrdU) to label replicating cells. At the age of 6 months (28 days after BrdU) mice were transcardially perfused and brains were dissected for examination of fixed tissue. […] Individual mouse data points are shown on the graph. Data was analyzed using two-way repeated measures ANOVA; * p<0.05, ** p<0.01, ***p<0.001, ****p<0.0001. All data is mean±SEM.

eicosanoids [6] = assay: Eicosanoid profiling by LC-MS/MS, right brain hemisphere of wild-type and 5×FAD mice; conditions: 5 mk/kg twice daily for 4 weeks
Experimental: as §1
as §2, with “FIG. 3” for “FIG. 2”, “the right hemisphere of the brain” for “the left hippocampus”

[7] = 5×FAD mice, versus vehicle control treated 5×FAD mice
[8] = following TBI, compared to vehicle treated mice
[9] = sham mice, compared to vehicle treated sham mice
[10] = MWM probe test, TBI mice, 5 mg/kg twice daily
[11] = wild-type mice, compared to vehicle treated wild-type mice

SMILES: CCCC[S+]([O-])c1sc2nc(-c3cccs3)cc(-c3ccccc3)c2c1N (single isomer, unassigned; (+)) [(+)-SW033291]
- TXB2 in left hippocampus (eicosanoids [1]; [7]): significant increase in TXB2
- eicosanoid values in left hippocampus (trends) (eicosanoids [1]; [7]): a trend to increased 6-keto-PGF1a, PGD2, PGE2, PGJ2, PGF2a
- eicosanoid values in left hippocampus (trends) (eicosanoids [1]; wild-type mice, versus vehicle treated mice): trends for increases in 6-keto-PGF1a, PGD2, PGE2, PGF2a, and 9,10-DiHOME
- left hemisphere values of PGJ2, TN-E, 15-HETE, and 9,10-DiHOME (eicosanoids [2]; TBI treated mice versus sham injury vehicle treated mice): restoration
- eicosanoid values in left hemisphere (eicosanoids [2]; [8]): significantly increased PGJ2, TN-E, 15-HETE, 8-HETE, 5-HETE, 9,10-DiHOME, and LTB4
- eicosanoid values in right hemisphere (trends) (eicosanoids [2]; [8]): trends toward decreased PGJ2, and TxB2
- eicosanoid values in left hemisphere (eicosanoids [2]; [9]): significantly decreased PGE2, PGF2a, 6-keto-PGF1a, PGD2, PGJ2, TN-E, TxB2, 15-HETE, 12-HETE, 9,10-DiHOME
- eicosanoid values in right hemisphere (trends) (eicosanoids [2]; [9]): a trend toward increased PGE2, 15-keto-PGE2, PGF2a, TN-E, 15-HETE, 12-HETE, 8-HETE, 5-HETE, and LTB4
- average latency to crossing the platform area [3, 10]: significantly increased in the vehicle-treated TBI-injured group compared to all other groups
- number of platform crosses [3, 10]: significantly decreased in the vehicle-treated TBI-injured group compared to all other groups
- average (escape) latency to find the hidden platform (learning) ([3]; TBI and sham-injured mice, 4-day learning period, 5 mg/kg twice daily): not different between groups
- memory / cognitive impairment after TBI (MWM probe) ([3]; TBI mice, 5 mg/kg): TBI-injured animals treated with vehicle showed memory deficits compared to the (+)-SW033291-treated TBI group
- memory / cognitive impairment after TBI (MWM probe) ([3]; TBI mice, listed as (+)-SW033921, 5 mg/kg): protects wild type mice from cognitive impairment after TBI
- silver staining (axon degeneration) ([4]; 5 mg/kg): reduced silver staining equivalent to sham-injury-vehicle
- silver staining (axon degeneration) ([4]; listed as (+)-SW033921, 5 mg/kg): protects wild type mice from axon degeneration after TBI
- survival of young hippocampal neurons relative to WT-vehicle mice ([5]; 5×FAD mice): comparable extent as WT-vehicle mice
- survival of newborn hippocampal neurons (BrdU) ([5]; 5×FAD mice, 5 mg/kg/day): augments the survival of newborn hippocampal neurons
- survival of newborn hippocampal neurons (BrdU) ([5]; WT mice): augments the survival of newborn hippocampal neurons
- eicosanoid values in right hemisphere of the brain (trends) (eicosanoids [6]; [7]): a trend to increased 15-keto-PGE2, TN-E, PGF2a, 12,13-DiHOME, and 11,12-DHET
- 6-keto-PGF1a, PGE2 in right hemisphere of the brain (eicosanoids [6]; [11]): significant increase in 6-keto-PGF1a, PGE2
- eicosanoid values in right hemisphere of the brain (trends) (eicosanoids [6]; [11]): a trend to increased TXB2, PGD2, 15-keto-PGE2, TN-E, PGJ2, PGF2a, LTB4, 15-HETE, 12-HETE, 8-HETE, 17-HDHA, 9,10-DiHOME, 14,15-DHET

Source: patent publication US20230310390A1, “INHIBITORS OF SHORT-CHAIN DEHYDROGENASE ACTIVITY FOR TREATING NEURODEGENERATION” (CASE WESTERN RESERVE UNIVERSITY, priority 2020, published 2023)
